We go through 15 compounds from patent US11613527B2, “Enzyme inhibitors” (KalVista Pharmaceuticals Limited, priority 2019, dated 2023).

The term IC50 denotes the midpoint of a concentration-inhibition curve.

Holding throughout (assay type): biochemical
The target in one experiment is Human KLK1 (Homo sapiens (Human), UniProt P06870). The experiment is described as follows: Determination of the IC50 for KLK1 (fluorogenic substrate H-DVal-Leu-Arg-AFC). As to the method: Selected compounds were further screened for inhibitory activity against the related enzyme KLK1. The ability of the compounds of formula (I) to inhibit KLK1 may be determined using the following biological assay:
Determination of the IC50 for KLK1
(§1) KLK1 inhibitory activity in vitro was determined using standard published methods (see e.g. Johansen et al., Int. J. Tiss. Reac. 1986, 8, 185; Shori et al., Biochem. Pharmacol., 1992, 43, 1209; Sturzebecher et al., Biol. Chem. Hoppe-Seyler, 1992, 373, 1025). Human KLK1 (Callbiochem) was incubated at 25° C. with the fluorogenic substrate H-DVal-Leu-Arg-AFC and various concentrations of the test compound. Residual enzyme activity (initial rate of reaction) was determined by measuring the change in optical absorbance at 410 nm and the IC50 value for the test compound was determined.

The next experiment deals with Human FXIa (Homo sapiens (Human), UniProt P03951). The experiment is described as follows: Determination of the % inhibition for FXIa (fluorogenic substrate Z-Gly-Pro-Arg-AFC; 40 μM or IC50). The procedure: Selected compounds were further screened for inhibitory activity against the related enzyme FXIa. The ability of the compounds of formula (I) to inhibit FXIa may be determined using the following biological assay:
Determination of the % Inhibition for FXIa
FXIa inhibitory activity in vitro was determined using standard published methods (see e.g. Johansen et al., Int. J. Tiss. Reac. 1986, 8, 185; Shori et al., Biochem. Pharmacol., 1992, 43, 1209; Sturzebecher et al., Biol. Chem. Hoppe-Seyler, 1992, 373, 1025). Human FXIa (Enzyme Research Laboratories) was incubated at 25° C. with the fluorogenic substrate Z-Gly-Pro-Arg-AFC and 40 μM of the test compound (or alternatively at various concentrations of the test compound in order to determine IC50). Residual enzyme activity (initial rate of reaction) was determined by measuring the change in optical absorbance at 410 nm and the IC50 value for the test compound was determined.

In the next experiment the target is Human plasma kallikrein (Homo sapiens (Human), UniProt P03952). The experiment is described as follows: Determination of the IC50 for plasma kallikrein (fluorogenic substrate H-DPro-Phe-Arg-AFC). Conditions: class symbols A-D, read-out: IC50 (human PKal). The procedure:
The ability of the compounds of formula (I) to inhibit plasma kallikrein may be determined using the following biological assay:
Determination of the IC50 for Plasma Kallikrein
as §1, with “Plasma kallikrein” for “KLK1”, “plasma kallikrein (Protogen)” for “KLK1 (Callbiochem)”, “H-DPro-Phe-Arg-AFC” for “H-DVal-Leu-Arg-AFC”

Sequence of Human plasma kallikrein (P03952 391-638): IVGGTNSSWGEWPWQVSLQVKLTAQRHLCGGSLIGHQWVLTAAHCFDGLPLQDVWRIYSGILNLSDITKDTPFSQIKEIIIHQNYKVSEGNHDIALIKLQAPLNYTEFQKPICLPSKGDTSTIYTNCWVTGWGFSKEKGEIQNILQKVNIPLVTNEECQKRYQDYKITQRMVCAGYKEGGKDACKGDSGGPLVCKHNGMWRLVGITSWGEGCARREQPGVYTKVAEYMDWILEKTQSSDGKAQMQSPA
Sequence of Human plasma kallikrein (P03952 20-390 partner): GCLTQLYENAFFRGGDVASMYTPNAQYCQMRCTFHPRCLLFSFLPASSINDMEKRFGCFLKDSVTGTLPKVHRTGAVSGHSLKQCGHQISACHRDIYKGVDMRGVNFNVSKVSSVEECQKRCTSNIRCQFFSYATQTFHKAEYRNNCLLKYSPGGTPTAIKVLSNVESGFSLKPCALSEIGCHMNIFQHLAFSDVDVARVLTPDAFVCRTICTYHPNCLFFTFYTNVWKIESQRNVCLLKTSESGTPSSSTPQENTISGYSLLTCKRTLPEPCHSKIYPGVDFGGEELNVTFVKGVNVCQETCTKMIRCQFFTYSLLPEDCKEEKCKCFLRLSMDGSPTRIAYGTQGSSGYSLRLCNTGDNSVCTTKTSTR
Sequence of Human FXIa (P03951 388-625): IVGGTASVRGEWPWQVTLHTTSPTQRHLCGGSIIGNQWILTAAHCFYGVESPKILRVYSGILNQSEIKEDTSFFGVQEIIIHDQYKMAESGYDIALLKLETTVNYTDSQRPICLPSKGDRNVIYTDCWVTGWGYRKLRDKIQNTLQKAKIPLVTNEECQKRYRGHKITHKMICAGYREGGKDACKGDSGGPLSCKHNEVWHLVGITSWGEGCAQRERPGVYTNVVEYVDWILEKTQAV
Sequence of Human FXIa (P03951 19-387 partner): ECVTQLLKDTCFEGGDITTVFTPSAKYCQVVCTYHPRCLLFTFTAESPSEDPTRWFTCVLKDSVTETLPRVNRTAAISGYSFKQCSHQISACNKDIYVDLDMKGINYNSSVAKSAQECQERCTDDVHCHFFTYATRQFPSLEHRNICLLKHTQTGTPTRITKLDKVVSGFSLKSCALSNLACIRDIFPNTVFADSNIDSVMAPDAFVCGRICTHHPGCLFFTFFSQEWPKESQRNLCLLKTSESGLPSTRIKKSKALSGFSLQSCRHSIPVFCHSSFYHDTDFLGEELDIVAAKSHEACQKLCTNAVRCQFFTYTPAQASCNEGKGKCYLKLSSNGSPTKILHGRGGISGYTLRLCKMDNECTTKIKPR
Sequence of Human KLK1 (P06870 25-262): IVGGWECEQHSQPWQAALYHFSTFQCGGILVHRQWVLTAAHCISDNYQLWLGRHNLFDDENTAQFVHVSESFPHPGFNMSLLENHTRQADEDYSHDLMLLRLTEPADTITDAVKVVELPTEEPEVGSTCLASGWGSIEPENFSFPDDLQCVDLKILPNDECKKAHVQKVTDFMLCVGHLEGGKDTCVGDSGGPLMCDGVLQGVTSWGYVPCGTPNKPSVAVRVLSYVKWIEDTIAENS

For `COCc1nn(Cc2ccc3c(c2)CN(C2CC2)CC3)cc1C(=O)NCc1c(-n2cnc(C(F)(F)F)n2)ccc(OC)c1F` [Example 20, 1-[(2-cyclopropyl-3,4-dihydro-1H-isoquinolin-7-yl)methyl]-N-({2-fluoro-3-methoxy-6-[3-(trifluoromethyl)-1,2,4-triazol-1-yl]phenyl}methyl)-3-(methoxymethyl)pyrazole-4-carboxamide], the half-maximal inhibitory concentration (IC50) was more than 40 µM at Human KLK1, more than 40 µM against Human FXIa and 0.01 to 0.03 µM on Human plasma kallikrein.

In the case of `COCc1nn(Cc2ccc3c(c2)CN(C2CC2)CC3)cc1C(=O)NCc1c(-n2ccc(C#N)n2)ccc(OC)c1F` [Example 21, N-{[6-(3-cyanopyrazol-1-yl)-2-fluoro-3-methoxyphenyl]methyl}-1-[(2-cyclopropyl-3,4-dihydro-1H-isoquinolin-7-yl)methyl]-3-(methoxymethyl)pyrazole-4-carboxamide], the IC50 is more than 40 µM at Human KLK1, 36.8 µM against Human FXIa and less than 0.01 µM at Human plasma kallikrein.

`COCc1nn(Cc2ccc3c(c2)CN(C)CC3)cc1C(=O)NCc1c(-n2nc(C)nc2C)ccc(OC)c1F` [Example 29, N-{[6-(dimethyl-1,2,4-triazol-1-yl)-2-fluoro-3-methoxyphenyl]methyl}-3-(methoxymethyl)-1-[(2-methyl-3,4-dihydro-1H-isoquinolin-7-yl)methyl]pyrazole-4-carboxamide]: the concentration for half-maximal inhibition (IC50) against Human KLK1 was more than 40 µM; at Human FXIa it was more than 40 µM; at Human plasma kallikrein, less than 0.01 µM.

With `COc1ccc(-n2cnc(C(F)(F)F)n2)c(CNC(=O)c2cnn(Cc3ccc4c(c3)CN(C)CC4)c2)c1F` [Example 31, N-({2-fluoro-3-methoxy-6-[3-(trifluoromethyl)-1,2,4-triazol-1-yl]phenyl}methyl)-1-[(2-methyl-3,4-dihydro-1H-isoquinolin-7-yl)methyl]pyrazole-4-carboxamide], the figures for the half-maximal inhibitory concentration (IC50) on Human KLK1, against Human FXIa and on Human plasma kallikrein were more than 40 µM, 34.6 µM and less than 0.01 µM, respectively.

`COc1ccc(-n2cnc(C(F)(F)F)n2)c(CNC(=O)c2cnn(Cc3ccc4c(c3)CN(C(C)C)CC4)c2)c1F` [Example 32, N-({2-fluoro-3-methoxy-6-[3-(trifluoromethyl)-1,2,4-triazol-1-yl]phenyl}methyl)-1-[(2-isopropyl-3,4-dihydro-1H-isoquinolin-7-yl)methyl]pyrazole-4-carboxamide]: the IC50 at Human KLK1 was more than 40 µM; against Human FXIa, 19.6 µM; on Human plasma kallikrein, less than 0.01 µM.

Regarding `COCc1nn(Cc2ccc3c(c2)CCN(C2CC2)C3)cc1C(=O)NCc1c(-n2cnc(C(F)F)n2)ccc(OC)c1F` [Example 47, 1-[(2-cyclopropyl-3,4-dihydro-1H-isoquinolin-6-yl)methyl]-N-({6-[3-(difluoromethyl)-1,2,4-triazol-1-yl]-2-fluoro-3-methoxyphenyl}methyl)-3-(methoxymethyl)pyrazole-4-carboxamide], the results for the IC50 at Human KLK1, at Human FXIa and at Human plasma kallikrein were more than 40 µM, more than 40 µM and 0.03 to 0.1 µM, respectively.

With `COCc1nn(Cc2ccc3c(c2)CCN(C2CC2)C3)cc1C(=O)NCc1c(-n2cnc(C(F)(F)F)n2)ccc(OC)c1F` [Example 48, 1-[(2-cyclopropyl-3,4-dihydro-1H-isoquinolin-6-yl)methyl]-N-({2-fluoro-3-methoxy-6-[3-(trifluoromethyl)-1,2,4-triazol-1-yl]phenyl}methyl)-3-(methoxymethyl)pyrazole-4-carboxamide], the concentration for half-maximal inhibition (IC50) on Human KLK1 was more than 40 µM; at Human FXIa, more than 40 µM; at Human plasma kallikrein, 0.03 to 0.1 µM.

For `COCc1nn(Cc2ccc3c(c2)CCN(C2CC2)C3)cc1C(=O)NCc1c(-n2ccc(C#N)n2)ccc(OC)c1F` [Example 49, N-{[6-(3-cyanopyrazol-1-yl)-2-fluoro-3-methoxyphenyl]methyl}-1-[(2-cyclopropyl-3,4-dihydro-1H-isoquinolin-6-yl)methyl]-3-(methoxymethyl)pyrazole-4-carboxamide], the IC50 against Human KLK1 is more than 40 µM; at Human FXIa, more than 40 µM; at Human plasma kallikrein, 0.01 to 0.03 µM.

For the compound `CCN1CCc2cc(Cn3cc(C(=O)NCc4c(-n5ccc(C#N)n5)ccc(OC)c4F)c(COC)n3)ccc2C1` [Example 52, N-{[6-(3-cyanopyrazol-1-yl)-2-fluoro-3-methoxyphenyl]methyl}-1-[(2-ethyl-3,4-dihydro-1H-isoquinolin-6-yl)methyl]-3-(methoxymethyl)pyrazole-4-carboxamide], the figures for the IC50 on Human KLK1, at Human FXIa and on Human plasma kallikrein were more than 40 µM, more than 40 µM and less than 0.01 µM, respectively.

For the compound `COCc1nn(Cc2ccc3c(c2)CNC3)cc1C(=O)NCc1c(-n2cc(C)nn2)ccc(OC)c1F` [Example 53, 1-(2,3-dihydro-1H-isoindol-5-ylmethyl)-N-{[2-fluoro-3-methoxy-6-(4-methyl-1,2,3-triazol-1-yl)phenyl]methyl}-3-(methoxymethyl)pyrazole-4-carboxamide], the results for the IC50 against Human KLK1, at Human FXIa and on Human plasma kallikrein were more than 4 µM, more than 4 µM and 0.03 to 0.1 µM, respectively.

Regarding `CCN1Cc2ccc(Cn3cc(C(=O)NCc4c(-n5cc(C)nn5)ccc(OC)c4F)c(COC)n3)cc2C1` [Example 56, 1-[(2-ethyl-1,3-dihydroisoindol-5-yl)methyl]-N-{[2-fluoro-3-methoxy-6-(4-methyl-1,2,3-triazol-1-yl)phenyl]methyl}-3-(methoxymethyl)pyrazole-4-carboxamide], the IC50 was more than 40 µM against Human KLK1, 16.3 µM at Human FXIa and less than 0.01 µM at Human plasma kallikrein.

As to `COCc1nn(Cc2ccc3c(c2)CN(C)C3)cc1C(=O)NCc1c(-n2cnc(C(F)F)n2)ccc(OC)c1F` [Example 57, N-({6-[3-(difluoromethyl)-1,2,4-triazol-1-yl]-2-fluoro-3-methoxyphenyl}methyl)-3-(methoxymethyl)-1-[(2-methyl-1,3-dihydroisoindol-5-yl)methyl]pyrazole-4-carboxamide], the IC50 at Human KLK1 was more than 40 µM; on Human FXIa, 28.8 µM; at Human plasma kallikrein, less than 0.01 µM.

Regarding `COCc1nn(Cc2ccc3c(c2)CN(C)C3)cc1C(=O)NCc1c(-n2cnc(C(F)(F)F)n2)ccc(OC)c1F` [Example 58, N-({2-fluoro-3-methoxy-6-[3-(trifluoromethyl)-1,2,4-triazol-1-yl]phenyl}methyl)-3-(methoxymethyl)-1-[(2-methyl-1,3-dihydroisoindol-5-yl)methyl]pyrazole-4-carboxamide], the concentration for half-maximal inhibition (IC50) on Human KLK1 is more than 40 µM; against Human FXIa, 17 µM; at Human plasma kallikrein, less than 0.01 µM.

As for `COCc1nn(Cc2ccc3c(c2)CN(C(C)C)C3)cc1C(=O)NCc1c(-n2cnc(C(F)F)n2)ccc(OC)c1F` [Example 59, N-({6-[3-(difluoromethyl)-1,2,4-triazol-1-yl]-2-fluoro-3-methoxyphenyl}methyl)-1-[(2-isopropyl-1,3-dihydroisoindol-5-yl)methyl]-3-(methoxymethyl)pyrazole-4-carboxamide], the figures for the IC50 against Human KLK1, against Human FXIa and at Human plasma kallikrein were more than 40 µM, more than 40 µM and less than 0.01 µM, respectively.

Consider `COCc1nn(Cc2ccc3c(c2)CN(C(C)C)C3)cc1C(=O)NCc1c(-n2cnc(C(F)(F)F)n2)ccc(OC)c1F` [Example 60, N-({2-fluoro-3-methoxy-6-[3-(trifluoromethyl)-1,2,4-triazol-1-yl]phenyl}methyl)-1-[(2-isopropyl-1,3-dihydroisoindol-5-yl)methyl]-3-(methoxymethyl)pyrazole-4-carboxamide], for which the IC50 on Human KLK1 is more than 40 µM; against Human FXIa, more than 40 µM; on Human plasma kallikrein, less than 0.01 µM.
